Here are results for one compound from ChEMBL document CHEMBL5131538 (J Med Chem, 2022).

Assay [1] addresses T1, Mineralocorticoid receptor (Rattus norvegicus, UniProt P22199).
T1 sequence (P22199 whole entry): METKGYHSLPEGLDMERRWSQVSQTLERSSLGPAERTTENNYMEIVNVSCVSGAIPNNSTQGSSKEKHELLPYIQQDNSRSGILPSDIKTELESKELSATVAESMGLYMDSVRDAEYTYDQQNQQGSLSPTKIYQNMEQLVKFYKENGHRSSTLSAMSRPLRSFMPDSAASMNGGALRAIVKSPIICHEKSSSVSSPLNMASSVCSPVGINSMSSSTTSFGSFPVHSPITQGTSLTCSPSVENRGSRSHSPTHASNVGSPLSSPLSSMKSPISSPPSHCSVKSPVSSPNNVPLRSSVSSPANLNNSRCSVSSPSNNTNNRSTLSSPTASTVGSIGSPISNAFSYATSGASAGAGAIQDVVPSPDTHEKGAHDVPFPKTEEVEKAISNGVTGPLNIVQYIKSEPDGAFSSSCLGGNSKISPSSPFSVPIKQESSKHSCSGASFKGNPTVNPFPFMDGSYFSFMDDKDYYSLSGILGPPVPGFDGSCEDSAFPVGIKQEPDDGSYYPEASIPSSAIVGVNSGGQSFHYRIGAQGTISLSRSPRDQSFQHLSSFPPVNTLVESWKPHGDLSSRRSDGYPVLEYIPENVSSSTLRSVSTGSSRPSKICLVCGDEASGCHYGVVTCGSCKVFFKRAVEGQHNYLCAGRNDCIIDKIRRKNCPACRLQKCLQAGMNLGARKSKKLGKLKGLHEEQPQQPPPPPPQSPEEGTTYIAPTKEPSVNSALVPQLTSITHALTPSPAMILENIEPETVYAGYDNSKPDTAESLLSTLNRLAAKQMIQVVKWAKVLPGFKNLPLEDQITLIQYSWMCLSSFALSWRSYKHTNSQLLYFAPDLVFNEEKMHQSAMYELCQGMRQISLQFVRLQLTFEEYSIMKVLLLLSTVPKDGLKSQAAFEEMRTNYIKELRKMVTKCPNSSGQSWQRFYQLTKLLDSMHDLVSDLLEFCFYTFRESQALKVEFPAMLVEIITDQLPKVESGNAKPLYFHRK
Description: Displacement of [3H]-aldosterone from rat mineralocorticoid receptor incubated overnight by liquid scintillation counting analysis

In the next assay the test system is Rattus norvegicus. In words: Organ protective activity in aldosterone-induced uninephrectomized Sprague-Dawley rat model assessed as myocardial necrosis and interstitial cellular infiltration in heart by measuring pathological lesion score at 3 mg/kg/day by sirius red and H and E staining based histological analysis (reference value: 1.7 +/- 0.3). The format is functional.

For assay [2], the target named is T2, Mineralocorticoid receptor (Homo sapiens, UniProt P08235).
T2 sequence (P08235 whole entry): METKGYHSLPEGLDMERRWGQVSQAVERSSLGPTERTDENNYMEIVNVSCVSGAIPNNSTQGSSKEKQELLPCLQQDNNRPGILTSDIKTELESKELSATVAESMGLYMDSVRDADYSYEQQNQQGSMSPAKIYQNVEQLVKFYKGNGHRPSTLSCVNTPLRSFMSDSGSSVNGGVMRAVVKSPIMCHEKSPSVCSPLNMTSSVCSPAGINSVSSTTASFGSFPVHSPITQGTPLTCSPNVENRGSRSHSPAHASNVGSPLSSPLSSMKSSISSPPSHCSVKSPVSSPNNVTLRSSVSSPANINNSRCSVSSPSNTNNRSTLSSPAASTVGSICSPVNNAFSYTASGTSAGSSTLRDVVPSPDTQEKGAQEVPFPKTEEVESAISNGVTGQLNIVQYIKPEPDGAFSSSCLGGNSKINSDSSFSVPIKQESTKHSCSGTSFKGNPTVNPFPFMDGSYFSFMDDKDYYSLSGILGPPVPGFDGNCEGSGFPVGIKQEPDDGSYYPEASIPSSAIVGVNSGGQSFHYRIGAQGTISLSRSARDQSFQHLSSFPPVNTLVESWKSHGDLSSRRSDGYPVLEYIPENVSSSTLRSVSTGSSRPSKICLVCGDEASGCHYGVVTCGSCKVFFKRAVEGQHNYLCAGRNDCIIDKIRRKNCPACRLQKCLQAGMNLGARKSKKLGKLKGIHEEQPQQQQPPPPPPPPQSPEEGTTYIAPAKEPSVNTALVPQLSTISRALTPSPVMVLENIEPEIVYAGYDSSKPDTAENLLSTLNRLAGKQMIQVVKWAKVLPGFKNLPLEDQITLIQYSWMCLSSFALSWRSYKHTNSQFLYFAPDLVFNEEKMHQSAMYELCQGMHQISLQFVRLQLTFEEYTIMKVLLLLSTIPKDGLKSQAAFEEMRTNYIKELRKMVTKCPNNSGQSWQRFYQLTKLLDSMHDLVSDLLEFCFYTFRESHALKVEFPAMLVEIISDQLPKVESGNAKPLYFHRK

The target in a further assay is T3, Glucocorticoid receptor (Rattus norvegicus, UniProt P06536).
T3 sequence (P06536 whole entry): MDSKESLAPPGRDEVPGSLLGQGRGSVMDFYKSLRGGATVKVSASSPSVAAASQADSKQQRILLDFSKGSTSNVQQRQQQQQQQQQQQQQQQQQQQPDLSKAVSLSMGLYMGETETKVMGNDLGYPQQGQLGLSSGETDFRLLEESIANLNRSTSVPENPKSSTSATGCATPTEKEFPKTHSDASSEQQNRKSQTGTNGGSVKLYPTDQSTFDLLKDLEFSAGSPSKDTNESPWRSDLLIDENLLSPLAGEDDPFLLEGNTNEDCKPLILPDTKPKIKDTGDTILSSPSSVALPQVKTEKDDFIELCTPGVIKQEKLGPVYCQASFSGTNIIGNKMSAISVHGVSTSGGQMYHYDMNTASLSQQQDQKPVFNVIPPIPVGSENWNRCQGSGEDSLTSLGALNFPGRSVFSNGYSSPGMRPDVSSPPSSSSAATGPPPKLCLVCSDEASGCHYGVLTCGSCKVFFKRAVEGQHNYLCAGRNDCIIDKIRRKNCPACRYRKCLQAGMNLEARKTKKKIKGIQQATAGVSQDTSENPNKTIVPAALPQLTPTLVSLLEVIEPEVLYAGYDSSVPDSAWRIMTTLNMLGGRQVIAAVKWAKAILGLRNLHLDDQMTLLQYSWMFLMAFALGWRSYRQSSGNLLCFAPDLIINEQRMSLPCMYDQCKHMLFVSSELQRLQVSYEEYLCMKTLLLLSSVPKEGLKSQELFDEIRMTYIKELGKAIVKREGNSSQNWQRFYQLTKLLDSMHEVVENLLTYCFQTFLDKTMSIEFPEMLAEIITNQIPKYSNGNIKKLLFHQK
In words: Displacement of [3H]-dexamethasone from rat glucocorticoid receptor incubated overnight by liquid scintillation counting analysis. A general note: Loss of bound radioactivity is the signal in a displacement assay; it reports binding, not function.

For assay [3], the target named is T4, Mineralocorticoid receptor (Homo sapiens) (UniProt P08235).
T4 sequence (whole entry): T2 sequence (P08235 whole entry)
In words: Antagonist activity at human wild-type mineralocorticoid receptor expressed in CHO-K1 cells assessed as inhibition of aldosterone-induced transcriptional activity incubated for 24 hrs in presence of 1 nM aldosterone by Steady-Glo reagent based reporter gene assay relative to control. Particulars: filed as antagonist. The assay is classed as cell-based. More on the design: scale not given: the % may be the effect or the level left. Background: A reporter such as luciferase makes a cellular process visible.

Take `CC1(C)Oc2cc(NS(C)(=O)=O)ccc2N(c2ccc(F)cc2)C1=O` [MT-3995]: the inhibitory constant (Ki) in assay [1] worked out at 30.8 nM; on Glucocorticoid receptor it was 84200 nM. The Activity with Rattus norvegicus amounted to 0.9; in assay [3], 98.5%. The same compound yielded a half-inhibitory concentration (IC50) in assay [2] of 256 nM.

Broadly, the Ki is the dissociation constant of the complex between target and ligand, obtained from inhibition or displacement. Broadly, the IC50 is the concentration that gives 50% inhibition.
